Experimental data: publication PMC3205048, “Differential Modulation of Beta-Adrenergic Receptor Signaling by Trace Amine-Associated Receptor 1 Agonists” (PLoS ONE, 2011)
Where two headings read alike, the source gives them in different places.

Experiments:
Format in all cases: cell-based
hTAAR1 = target: T1, hTAAR1 (Homo sapiens, UniProt Q96RJ0); assay: cAMP accumulation (AlphaScreen) in HEK293 cells transiently transfected with hTAAR1
T1 construct: Full length human TAAR1 (hTAAR1, NM_138327.1) was subcloned; first 20 amino acids of bovine rhodopsin (N); expressed in transfected cells; host or cells: HEK293, transient transfection, vector pcDps
T1 sequence (Q96RJ0 1-339): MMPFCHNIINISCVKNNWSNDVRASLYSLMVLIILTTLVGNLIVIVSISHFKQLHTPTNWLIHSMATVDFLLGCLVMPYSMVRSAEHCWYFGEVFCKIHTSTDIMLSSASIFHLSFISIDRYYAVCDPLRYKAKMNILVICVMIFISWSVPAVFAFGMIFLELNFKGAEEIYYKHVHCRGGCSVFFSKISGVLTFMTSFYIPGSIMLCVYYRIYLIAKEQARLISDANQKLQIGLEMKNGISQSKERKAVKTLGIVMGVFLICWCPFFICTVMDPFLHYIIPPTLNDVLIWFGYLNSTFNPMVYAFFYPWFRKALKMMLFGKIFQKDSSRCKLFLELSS
Experimental: Figure 2 Functional characterization of hTAAR1 interacting with different trace amines. HEK293 cells transiently transfected with hTAAR1 and were incubated for 45 minutes with […] of PEA, OA and TYR. Basal signaling activity as well as activation of the Gs protein/adenylyl cyclase pathway was determined by AlphaScreen technology. Data represent mean ± SEM of cAMP accumulation after stimulation from 4–5 independent experiments performed in triplicates. […]. Data were analyzed using a paired one-tailed t-test.
Full length human TAAR1 (hTAAR1, NM_138327.1) was subcloned into the eukaryotic expression vector pcDps, N-terminally tagged with an hemagglutinin (5′ […] 3′) epitope via KpnI and SpeI restriction sites. For better cell surface expression hTAAR1 was additionally N-terminally fused with the first 20 amino acids of the bovine Rhodopsin [18], [33]. The human β1-adrenergic receptor (hADRB1, NM_000684.2)-pcDps construct cloned via KpnI/SpeI containing N-terminal (HA)-tag and C-terminal Flag-tag (5′ […] 3′).
Human embryonic kidney cells (HEK293) were cultured in Minimum Essential Medium (MEM) Earle's (Biochrom AG) supplemented with 10% FBS (PAA Laboratories GmbH), 100 U/ml penicillin, and 100 µg/ml streptomycin (Biochrom AG) and 2 mM L-glutamine (Invitrogen) at 37°C with 5% CO2. 48 well plates were coated with Poly-L-Lysine (Biochrom) and HEK293 cells were seeded with 37,500 cells per well. Transient transfection in triplicates with 84 ng DNA/well using metafectene according to manufactures instructions (Biontex, Munich, Germany) was performed 28 hours later. 40 hours after transfection cells were pre-incubated for 5 minutes with stimulation buffer containing of MEM Earle's media and 1 mM 3-isobutyl-1-methylxanthine (IBMX, Sigma). This stimulation buffer was used for all further steps. […]. Ligands were all purchased from Sigma, Munich. Controls were incubated with tyramine, β-phenylethylamine, octopamine or isoprenaline for 45 minutes. All reactions were performed at 37°C with 5% CO2 saturated air and stopped by aspirating medium. Cells were lysed at 4°C for 2 h on a shaking platform with cell lysis buffer containing […] HEPES, 0.1% BSA, 0.3% Tween20 and 1 mM IBMX.
(§1) The competitive cyclic adenosine-monophosphate (cAMP) assay via Alphascreen (Perkin Elmer Life Science, Inc., Boston, MA) was carried out according to the manufacturers' protocol. Briefly, 5 µl of each sample were transferred to a 384 well plate. Acceptor beads were diluted in 1X HBSS with […] HEPES, 0.1% BSA, pH 7.4 and incubated for 30 minutes at room temperature. Then donor beads and 50 µM biotinylated cAMP diluted in the same way were added and incubated for an hour at room temperature. Measurement of the plate was performed using Berthold Microplate Reader (Berthold Technologies GmbH & Co. KG). Results are expressed in fold over mock (unstimulated empty vector). Dose response curves and bar graphs with mean ± SEM as well as statistical analysis (paired one-tailed t-test) were generated using GraphPad Prism Version 4.03.
Supplementary file pone.0027073.s001.tif: Figure S1 Dose response curves of hTAAR1 agonists. […]. HEK293 transiently expressing hTAAR1 were stimulated with each trace amine in concentrations ranging 0.1 mM to 10 nM. Shown are dose response curves fold over basal means ± SEM from n≥4 independent experiments of measured cAMP in triplicates as described in Material and Methods. […]. Data were analyzed using paired one-tailed t-test tested against basal value of hTAAR1. (TIF) Click here for additional data file.

hADRB2 = target: T2, hADRB2 (Homo sapiens, UniProt P07550); assay: cAMP accumulation (AlphaScreen) in HEK293 cells transiently transfected with hADRB2, ligand alone or co-stimulation with ISOP; conditions: for agonistic effect of the ligand alone: ligand alone 6.7 nM to 6700 nM, 45 min; for effect on ISOP stimulation: pre-incubation 6.7 nM to 6700 nM 15 min, then ISOP 1 nM to 10000 nM 30 min
T2 construct: HA tag (N); expressed in transfected cells; host or cells: HEK293 (ATCC-LGC), transient transfection, vector pcDps
Experimental: (§2) We functionally tested the effects of particular trace amines at the human ADRB1 and ADRB2 (figure 3). […] Controls were stimulated with each trace amine and ISOP alone, respectively.
(§3) Figure 3 Characterization of hADRB1 and hADRB2 after trace amine challenge. HEK293 cells were transiently transfected with hADRB1 and hADRB2, respectively. […] As controls hADRB1 and hADRB2 were incubated with each substance alone with the same concentration for 45 minutes. Three to four independent experiments measured in duplex or tripletts mean ± SEM are depicted here. […] Maximal values were statistically analyzed using paired one-tail t-test compared to ISOP maximal stimulation. A-B) hADRB1 and hADRB2 were stimulated with ISOP and TYR alone and with both substances simultaneously.
Human β2-adrenergic receptor (ADRB2, NM_000024.5) was subcloned via EcoRI and SpeI with an N-terminal (HA)-tag as well.
Human embryonic kidney cells (HEK293) were cultured in Minimum Essential Medium (MEM) Earle's (Biochrom AG) supplemented with 10% FBS (PAA Laboratories GmbH), 100 U/ml penicillin, and 100 µg/ml streptomycin (Biochrom AG) and 2 mM L-glutamine (Invitrogen) at 37°C with 5% CO2. 48 well plates were coated with Poly-L-Lysine (Biochrom) and HEK293 cells were seeded with 37,500 cells per well. Transient transfection in triplicates with 84 ng DNA/well using metafectene according to manufactures instructions (Biontex, Munich, Germany) was performed 28 hours later. 40 hours after transfection cells were pre-incubated for 5 minutes with stimulation buffer containing of MEM Earle's media and 1 mM 3-isobutyl-1-methylxanthine (IBMX, Sigma). This stimulation buffer was used for all further steps. […] Ligands were all purchased from Sigma, Munich. Controls were incubated with tyramine, β-phenylethylamine, octopamine or isoprenaline for 45 minutes. All reactions were performed at 37°C with 5% CO2 saturated air and stopped by aspirating medium. Cells were lysed at 4°C for 2 h on a shaking platform with cell lysis buffer containing […] HEPES, 0.1% BSA, 0.3% Tween20 and 1 mM IBMX.
as §1, with “vector).” for “vector). Dose response curves and bar graphs with mean ± SEM as well as statistical analysis (paired one-tailed t-test) were generated using GraphPad Prism Version 4.03.”

hADRB1 = target: T3, hADRB1 (Homo sapiens, UniProt P08588)
T3 construct: HA tag (N); expressed in transfected cells; host or cells: HEK293 (ATCC-LGC), transient transfection, vector pcDps
Experimental: as §2, §3
Human embryonic kidney cells (HEK293) were cultured in Minimum Essential Medium (MEM) Earle's (Biochrom AG) supplemented with 10% FBS (PAA Laboratories GmbH), 100 U/ml penicillin, and 100 µg/ml streptomycin (Biochrom AG) and 2 mM L-glutamine (Invitrogen) at 37°C with 5% CO2. […]
The competitive cyclic adenosine-monophosphate (cAMP) assay via Alphascreen (Perkin Elmer Life Science, Inc., Boston, MA) was carried out according to the manufacturers' protocol. […] Measurement of the plate was performed using Berthold Microplate Reader (Berthold Technologies GmbH & Co. KG). […]

[1] = ligand alone, 45 min, HEK293, cAMP, mean ± SEM
[2] = ligand alone, HEK293, cAMP accumulation, mean ± SEM, n≥3, read-out: EC50

T2 sequence (P07550 whole entry): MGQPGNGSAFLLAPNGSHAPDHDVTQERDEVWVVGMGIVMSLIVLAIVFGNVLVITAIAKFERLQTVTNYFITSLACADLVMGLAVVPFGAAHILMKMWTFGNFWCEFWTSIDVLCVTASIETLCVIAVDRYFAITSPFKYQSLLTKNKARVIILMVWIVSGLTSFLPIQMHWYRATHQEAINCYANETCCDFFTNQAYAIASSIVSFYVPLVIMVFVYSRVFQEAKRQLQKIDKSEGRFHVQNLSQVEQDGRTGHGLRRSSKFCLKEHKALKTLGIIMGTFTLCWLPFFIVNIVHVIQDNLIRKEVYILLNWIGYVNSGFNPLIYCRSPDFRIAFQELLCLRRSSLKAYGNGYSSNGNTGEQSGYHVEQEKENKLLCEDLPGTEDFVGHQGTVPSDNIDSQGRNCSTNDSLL
T3 sequence (P08588 whole entry): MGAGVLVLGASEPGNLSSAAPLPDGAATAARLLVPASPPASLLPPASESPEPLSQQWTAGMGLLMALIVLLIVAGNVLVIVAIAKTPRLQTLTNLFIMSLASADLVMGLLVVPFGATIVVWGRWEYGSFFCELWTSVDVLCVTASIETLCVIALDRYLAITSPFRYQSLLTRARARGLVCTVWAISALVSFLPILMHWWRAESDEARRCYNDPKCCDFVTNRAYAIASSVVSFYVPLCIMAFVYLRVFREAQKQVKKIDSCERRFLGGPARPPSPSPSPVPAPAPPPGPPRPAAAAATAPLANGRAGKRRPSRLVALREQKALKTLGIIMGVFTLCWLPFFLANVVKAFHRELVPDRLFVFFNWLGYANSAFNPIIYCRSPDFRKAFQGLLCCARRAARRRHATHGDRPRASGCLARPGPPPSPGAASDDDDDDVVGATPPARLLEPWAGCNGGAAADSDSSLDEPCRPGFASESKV

`NCCc1ccc(O)cc1` [TYR, tyramine] was tested. Which EC50 (hTAAR1) did it give?
Its EC50 is 1540 ± 251 nM.

What about the Emax (hTAAR1) of the same compound?
Its Emax is 219 ± 67 nM.

And the “activation of hTAAR1 (adenylyl cyclase stimulation, cAMP formation)” value (“activation of hTAAR1” below) (hTAAR1)?
Its value is “activate hTAAR1”.

And the “agonistic effect of the ligand alone” value (hADRB2)?
The value was “no agonistic effect”.

What about the “effect on ISOP stimulation” value (hADRB2) of the same compound?
Its value is “allosteric antagonist”.

With `NCCc1ccccc1` [PEA, β-phenylethylamine] as the compound, how does the “activation of hTAAR1” value (hTAAR1; HEK293, 45 min) read?
Its value is “activate hTAAR1”.

And the Emax (hTAAR1; [1])?
Its Emax is 403 ± 54 nM.

And the EC50 (hTAAR1; [2])?
Its EC50 is 260 ± 16 nM.

What about the “effect on ISOP stimulation” value (hADRB1) of the same compound?
The value was “non-competitively antagonized”.

What about the “agonistic effect of the ligand alone” value (hADRB1; ligand alone 6.7 nM to 6700 nM, 45 min) of the same compound?
Its value is “no agonistic effects”.

And the “agonistic effect of the ligand alone” value (hADRB2)?
The value was “no agonistic effects”.

What about the “effect on ISOP stimulation” value (hADRB2) of the same compound?
Its value is “non-competitively antagonized”.

`NCC(O)c1ccc(O)cc1` (centres unmarked) [OA, octopamine] was tested. Which “activation of hTAAR1” value (hTAAR1; HEK293, 45 min) did it give?
Its value is “activate hTAAR1”.

What about the Emax (hTAAR1; [1]) of the same compound?
The Emax was 172 ± 42 nM.

And the EC50 (hTAAR1; [2])?
Its EC50 is 4170 ± 1470 nM.

What about the “agonistic effect of the ligand alone” value (hADRB2) of the same compound?
The value was “no agonistic effect”.

What about the “effect on ISOP stimulation” value (hADRB2) of the same compound?
Its value is “orthosteric antagonist”.
